Key:
[1] = system: hERβ; details: relative binding affinity, estradiol = 100; cited from earlier work
[2] = system: hERβ; assay: Relative binding affinity (RBA) to hERβ, cited from Kuiper et al.; design: species or system human; details: quotient of RBA to hERβ and hERα
Excerpt: In this case, it is assumed that ERβ predominates in the rat prostates over ERα, and ERα predominates in rat uteri over ERβ.

[3] = system: estrogen receptor preparations from rat prostates; assay: Competitive binding with 3H-estradiol to estrogen receptor from rat prostate cytosol

ERβ/ERα [2]	Rat prost. ER(RBA) ([3]; rat prostate cytosol, 3H-estradiol as ligand, estradiol = 100)	prost. ER/uterus ER ([3]; ratio of RBA at rat prostate ER to rat uterus ER)	Compound	hERβ RBA* [1]
–	–	–	C[C@]12CC[C@@H]3c4ccc(O)cc4CC[C@H]3[C@@H]1C[C@@H](O)[C@@H]2O [Estriol]	21
1	100	1	Estradiol	100

— patent US20040029847A1 (priority 2003, published 2004)
